Assay results: patent EP2678315B1, “(Pyridin-4-yl)benzylamides as allosteric modulators of alpha 7 nAChR” (Janssen Pharmaceutica, N.V., priority 2011, dated 2012)
Where “and” joins values, the source holds several entries; their conditions need not be identical. Equal entries are not always repeated. Where two headings read alike, the source gives them in different places.

Molecular target: T1, human alpha 7-wt nAChR (Homo sapiens, UniProt P36544)
T1 construct: expressed in transfected cells
Experiment: Ca2+ flux imaging (FDSS) (protocol B)
Type: cell-based
Settings: for EC50: read-out: pEC50 (converted); for Emax: read-out: % Efficacy
Description: Example D.1 : Ca^2+ flux imaging (FDSS) (protocol B)
• a) Assay buffer Hanks buffered saline solution (HBSS, Invitrogen, Belgium), supplemented with 10 mM HEPES (Invitrogen, Belgium), CaCl2 to a final concentration of 5 mM, 0.1 % Bovine serum albumin (Sigma-Aldrich NV, Belgium). • b) Calcium-sensitive dye - Fluo-4AM Fluo-4AM (Molecular Probes, USA) was dissolved in DMSO containing 10% Pluronic acid (Molecular Probes, USA) to give a stock solution which was diluted in assay buffer supplemented with 5 mM probenicid (Sigma, Aldrich NV, Belgium) to give a final concentration of 2 µM • c) 384-well plates Black-sided, transparent bottomed 384 well plates coated with poly-D-lysine, PDL pre-coated (Coming, Incorporated, USA) • d) Calcium flux measurement A Functional drug screening system (FDSS, Hamamatsu) was used to measure intracellular free-calcium flux signals.
Monolayers of human alpha 7-wt nAChR-expressing cells were grown in black-sided, transparent bottomed 384 well plates coated with PDL for 24 hours prior to loading with a fluorescent calcium indicator, fluo-4AM for up to 120 minutes.
PAM activity was detected in real time by applying the compounds to be tested to the loaded cells along with an alpha 7 nicotinic receptor agonist during constant monitoring of cellular fluorescence in a FDSS. Compounds giving peak fluorescent responses greater than the response due to agonist alone, were consideted to be alpha 7 nAChR PAMs. The alpha 7 nicotinic receptor agonist was choline, applied at a sub-maximal concentration of 100 µM. In a further setting of the present invention the compounds were applied prior to the alpha 7 nicotinic receptor agonist, in a particular 10 minutes prior to the agonist.
A control response to choline was calculated on each plate from the difference in peak in fluorescence in wells receiving either choline or assay buffer alone. Compounds of the present invention were tested at a concentration range from 0.01 µM to 30 µM. Compounds were considered to have an interesting activity when they potentiated the choline signal at least with 200 % when tested at a concentration of 30 µM (the efficacy of 100 µM choline was defined as 100% in the absence of a PAM). An EC50 (or pEC50) was determined as a concentration relating to half the maximal effect, when a clear sigmoidal curve with top plateau was obtained.

T1 sequence (P36544 23-502): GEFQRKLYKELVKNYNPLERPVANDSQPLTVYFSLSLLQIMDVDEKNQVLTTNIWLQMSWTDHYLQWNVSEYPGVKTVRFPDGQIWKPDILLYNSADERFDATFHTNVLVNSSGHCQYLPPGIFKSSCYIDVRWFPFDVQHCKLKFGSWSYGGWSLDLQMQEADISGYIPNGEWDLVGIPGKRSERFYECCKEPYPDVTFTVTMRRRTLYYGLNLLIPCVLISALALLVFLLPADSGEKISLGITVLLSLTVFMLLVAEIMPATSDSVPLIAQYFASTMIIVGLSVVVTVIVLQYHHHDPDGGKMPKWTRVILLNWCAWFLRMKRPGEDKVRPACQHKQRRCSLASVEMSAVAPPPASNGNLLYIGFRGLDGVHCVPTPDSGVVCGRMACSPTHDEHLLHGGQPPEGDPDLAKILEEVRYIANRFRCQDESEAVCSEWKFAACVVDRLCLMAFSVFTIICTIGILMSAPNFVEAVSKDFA

SMILES	EC50 (Ca2+ assay as described in D.1)	Emax (Ca2+ assay as described in D.1)	% Efficacy (Ca2+ assay as described in D.1)	Emax
Cc1cc(-c2ccc(N3CCOCC3)cc2CNC(=O)c2ccc(F)cc2C)ccn1 [Compound 31]	479 nM			576%
Cc1cc(-c2ccc(N3CCO[C@@H](C(F)(F)F)C3)c(F)c2CNC(=O)C2CC2)cc(C)n1 [Compound 73]	741 nM			878%
Cc1cc(-c2ccc(N3C[C@@H](C)O[C@@H](C)C3)c(F)c2CNC(=O)C2CC2)cc(C)n1 [Compound 42]	1170 nM			
Cc1cc(-c2ccc(N3CCOCC3)cc2CNC(=O)CC2CC2)cc(C)n1 [Compound 24]	1780 nM			466%
Cc1cc(-c2ccc(N3C[C@@H](C)O[C@@H](C)C3)cc2CNC(=O)c2ccc(F)cc2C)ccn1 [Compound 11]	9.33 nM			912%
Cc1cc(-c2ccc(N3C[C@@H](C)O[C@@H](C)C3)c(F)c2CNC(=O)c2cc(C)on2)cc(C)n1 [Compound 38]	977 nM			
Cc1cc(-c2ccc(N3C[C@H](C(F)(F)F)C[C@H](C(F)(F)F)C3)cc2CNC(=O)C(C)C)cc(C)n1 [Compound 23]	15.8 nM			322%
Cc1cc(-c2c(F)cc(N3C[C@@H](C)O[C@@H](C)C3)cc2CNC(=O)C(C)C)cc(C)n1 [Compound 78]	21.9 nM			707%
Cc1cc(-c2ccc(N3C[C@H](C(F)(F)F)C[C@H](C(F)(F)F)C3)cc2CNC(=O)c2cc(C)on2)cc(C)n1 [Compound 21]	126 nM			541%
Cc1cc(-c2ccc(N3C[C@@H](C)O[C@@H](C)C3)cc2CNC(=O)c2ccc(F)cc2C)cc(C)n1 [Compound 5]	9.33 nM			
Cc1cc(-c2ccc(C3C[C@@H](C)O[C@@H](C)C3)c(F)c2CNC(=O)CC(C)C)cc(C)n1 (relative stereo) [Compound 55]	229 nM			890%
Cc1cc(-c2c(F)cc(N3C[C@@H](C)O[C@@H](C)C3)cc2CNC(=O)c2conc2C)cc(C)n1 [Compound 76]	~38 nM			572%
Cc1cc(-c2ccc(N3C[C@@H](C)O[C@@H](C)C3)c(F)c2CNC(=O)C(C)C)cc(C)n1 [Compound 41]	575 nM			
Cc1cc(-c2ccc(N3CCCC(C(F)(F)F)C3)cc2CNC(=O)c2cc(C)on2)cc(C)n1 (centres unmarked) [Compound 34]	537 nM			405%
Cc1cc(-c2ccc(N3CCOCC3)cc2CNC(=O)CC(F)(F)F)cc(C)n1 [Compound 28]		111%		
Cc1cc(-c2c(F)cc(N3CCCC(C(F)(F)F)C3)cc2CNC(=O)CC2CC2)cc(C)n1 (centres unmarked) [Compound 95]	27.5 nM			427%
Cc1cc(-c2ccc(N3CCOCC3)cc2CNC(=O)c2conc2C)ccn1 [Compound 143]	8710 nM			130%

SMILES	EC50 (Ca2+ assay as described in D.1)	Emax (Ca2+ assay as described in D.1)	% Efficacy (Ca2+ assay as described in D.1)	Emax
Cc1cc(-c2ccc(N3C[C@@H](C)O[C@@H](C)C3)cc2CNC(=O)C(C)C2CC2)cc(C)n1 (relative stereo) [Compound 8]	24 nM			353%
Cc1cc(-c2ccc(N3C[C@@H](C)O[C@@H](C)C3)cc2CNC(=O)c2conc2C)ccn1 [Compound 12]	166 nM			562%
Cc1cc(-c2ccc(N3C[C@@H](C)O[C@@H](C)C3)c(F)c2CNC(=O)C2CCCCC2)cc(C)n1 [Compound 46]	91.2 nM			
Cc1cc(-c2ccc(N3CCCC(C(F)(F)F)C3)cc2CNC(=O)CC2CC2)cc(C)n1 (centres unmarked) [Compound 35]	26.3 nM			389%
Cc1cc(-c2ccc(N3C[C@@H](C)O[C@@H](C)C3)c(F)c2CNC(=O)c2conc2C)cc(C)n1 [Compound 39]	832 nM			
Cc1cc(-c2ccc(N3CCCC(C(F)(F)F)C3)cc2CNC(=O)c2ccc(F)cc2C)cc(C)n1 (centres unmarked) [Compound 33]	245 nM			278%
Cc1cc(-c2ccc(N3C[C@@H](C)O[C@@H](C)C3)c(F)c2CNC(=O)c2ccc(F)cc2C)cc(C)n1 [Compound 40]	41.7 nM			
Cc1cc(-c2ccc(N3C[C@H](C(F)(F)F)C[C@H](C(F)(F)F)C3)cc2CNC(=O)c2ccc(F)cc2C)cc(C)n1 [Compound 20]	11 nM			466%
Cc1cc(-c2ccc(N3CCOCC3)cc2CNC(=O)c2ccc(F)cc2C)cc(C)n1 [Compound 27]	57.5 nM			419%
Cc1cc(-c2ccc(N3C[C@H](C(F)(F)F)C[C@H](C(F)(F)F)C3)cc2CNC(=O)c2conc2C)cc(C)n1 [Compound 19]	50.1 nM			266%
Cc1cc(-c2c(F)cc(N3C[C@@H](C)O[C@@H](C)C3)cc2CNC(=O)CC(C)(C)C)cc(C)n1 [Compound 84]	9.33 nM			686%
Cc1cc(-c2c(F)cc(N3C[C@@H](C)O[C@@H](C)C3)cc2CNC(=O)C2CC2)cc(C)n1 [Compound 79]	17.4 nM			381%
Cc1cc(-c2ccc(N3CCOCC3)cc2CNC(=O)C2CC2)cc(C)n1 [Compound 30]		260%		
Cc1cc(-c2ccc(N3C[C@@H](C)O[C@@H](C)C3)cc2CNC(=O)CC2CC2)ccn1 [Compound 13]	282 nM			915%
Cc1cc(-c2ccc(N3CCOCC3)cc2CNC(=O)c2cc(C)on2)cc(C)n1 [Compound 25]	6170 nM			654%
Cc1cc(-c2ccc(N3C[C@H](C)C[C@H](C)C3)cc2CNC(=O)c2cc(C)on2)cc(C)n1 [Compound 18]	288 nM			136%

The next lines start with results.

EC50 (Ca2+ assay as described in D.1)	Emax (Ca2+ assay as described in D.1)	% Efficacy (Ca2+ assay as described in D.1)	SMILES	Emax
	545%		Cc1cc(-c2ccc(N3CCOCC3)cc2CNC(=O)c2cc(C)on2)ccn1 [Compound 142]	
148 nM			Cc1cc(-c2ccc(N3C[C@@H](C)O[C@@H](C)C3)c(F)c2CNC(=O)c2cnc(Cl)cc2Cl)cc(C)n1 [Compound 51]	
708 nM			Cc1cc(-c2ccc(C3C[C@@H](C)O[C@@H](C)C3)c(F)c2CNC(=O)c2cc(C)on2)cc(C)n1 (relative stereo) [Compound 62]	
1070 nM			Cc1cc(-c2ccc(C3C[C@@H](C)O[C@@H](C)C3)c(F)c2CNC(=O)c2conc2C)cc(C)n1 (relative stereo) [Compound 63]	
14.1 nM			Cc1cc(-c2ccc(N3C[C@@H](C)O[C@@H](C)C3)c(CNC(=O)c3ccc(F)cc3C)c2)cc(C)n1 [Compound 135]	
	148%		Cc1cc(-c2c(F)cc(N3CCCC(C(F)(F)F)C3)cc2CNC(=O)C(C)C)cc(C)n1 (centres unmarked) [Compound 96]	
12.6 nM			Cc1cc(-c2c(F)cc(N3C[C@@H](C)O[C@@H](C)C3)cc2CNC(=O)CC(C)C)ccn1 [Compound 92]	
14.8 nM			Cc1cc(-c2ccc(N3CCO[C@@H](C(F)(F)F)C3)c(F)c2CNC(=O)CC(C)C)cc(C)n1 [Compound 72]	
575 nM			Cc1cc(-c2ccc(N3CCO[C@H](C(F)(F)F)C3)c(F)c2CNC(=O)C(C)C)cc(C)n1 [Compound 65]	
	136%		Cc1cc(-c2c(F)cc(N3C[C@@H](C)O[C@@H](C)C3)cc2CNC(=O)CC(F)(F)F)cc(C)n1 [Compound 77]	
309 nM			Cc1cc(-c2ccc(N3CCO[C@H](C(F)(F)F)C3)c(F)c2CNC(=O)CC2CC2)cc(C)n1 [Compound 64]	
< 10 nM			Cc1cc(-c2c(F)cc(N3CCO[C@@H](C(F)(F)F)C3)cc2CNC(=O)CC(C)C)cc(C)n1 [Compound 101]	
479 nM			Cc1cc(-c2ccc(N3C[C@@H](C)O[C@@H](C)C3)c(F)c2CNC(=O)c2cccc(Cl)c2F)cc(C)n1 [Compound 52]	
209 nM			Cc1cc(-c2c(F)cc(N3C[C@@H](C)O[C@@H](C)C3)cc2CNC(=O)c2cc(C)on2)cc(C)n1 [Compound 75]	
589 nM			Cc1cc(-c2c(F)cc(N3C[C@@H](C)O[C@@H](C)C3)c(F)c2CNC(=O)C2CC2)cc(C)n1 [Compound 122]	
115 nM			Cc1cc(-c2ccc(N3CCO[C@H](C(F)(F)F)C3)c(F)c2CNC(=O)CC2CCC2)cc(C)n1 [Compound 70]	
234 nM			Cc1cc(-c2ccc(N3CCO[C@@H](C(F)(F)F)C3)c(F)c2CNC(=O)c2cc(C)on2)cc(C)n1 [Compound 57]	
155 nM			Cc1cc(-c2ccc(N3CCO[C@@H](C(F)(F)F)C3)c(F)c2CNC(=O)C(C)C)cc(C)n1 [Compound 56]	
	386%		Cc1nocc1C(=O)NCc1cc(N2CCOCC2)ccc1-c1ccncc1 [Compound 138]	
178 nM			Cc1cc(-c2ccc(C3C[C@@H](C)O[C@@H](C)C3)c(F)c2CNC(=O)CC2CCC2)cc(C)n1 (relative stereo) [Compound 60]	
79.4 nM			Cc1cc(-c2c(F)cc(N3C[C@@H](C)O[C@@H](C)C3)cc2CNC(=O)CC2CC2)ccn1 [Compound 87]	
479 nM			Cc1cc(-c2ccc(N3C[C@@H](C)O[C@@H](C)C3)c(F)c2CNC(=O)C(C)C2CC2)cc(C)n1 (mixture of isomers) [Compound 50]	
		495.5% and 591.6%	Cc1cc(-c2ccc(N3CCOCC3)cc2CNC(=O)C(C)C)ccn1 [Compound 140]	
